Columns and labels:
[1] = test system: Aspergillus niger; assay: USP Antimicrobial Effectiveness Test (AET), MSM in TSB; assay type: cell-based; parameters: key to AET microorganism count: Colonies too numerous to count (TNTC); settings: for Log Reduction from Initial Microorganism Inoculum: 1:10 dilution of MSM, 14, 28 Days; for AET microorganism count: 48 hrs
Source text: Compounds or formulated products having antimicrobial activity may be evaluated with the United States Pharmacopeia (USP) Antimicrobial Effectiveness Test (AET). The AET involves the addition of specified microorganisms (Candida albicans, Aspergillus niger, Escherichia coli, Pseudomonas aeruginosa and Staphylococcus aureus) directly to a test product at relatively high concentrations to simulate contamination. The product is held for one month, with weekly analysis of microorganism levels. Depending on the route of administration of a product, satisfaction of the AET generally requires a 1 to 3 log reduction in bacteria from initial levels, which should occur in one to two weeks, with no further increase in bacteria after two weeks. For yeast and mold, no increase from the initial inoculums level is permitted.
Inoculations were made using Candida albicans, Aspergillus niger, Escherichia coli, Pseudomonas aeruginosa and Staphylococcus aureus. Tryptic soy broth (TSB) was used as the culturing media. […] The inoculated media was held for one month, during which time the added microorganisms were enumerated weekly to determine if they were growing, dying off, or remaining near the initial inoculation level. Data points were measured in triplicate at 48 hours, 3, 5, 14, 20, 28, and 30 days. The acceptance criteria for antimicrobial effectiveness are described in detail in the USP, herein incorporated by reference.

[2] = test system: Bacillus coagulans; assay: Probiotic growth in media supplemented with MSM; assay type: cell-based
Source text: Plates were then counted. […] Data are presented in Cfu/mL.

## Methylsulfonylmethane [MSM]
[1]; 14 days after inoculation
  Log Reduction from Initial Microorganism Inoculum: 4.3 log
[1]; 28 days after inoculation
  Log Reduction from Initial Microorganism Inoculum: 4.5 log
[1]; 1:100 dilution of MSM
  AET microorganism count: TNTC*
[1]; 1:1000 dilution of MSM
  AET microorganism count: TNTC*
[2]; 0.125% MSM, 0 h
  Growth of Bacillus coagulans: 1.52 log10 CFU/mL
[2]; 0.125% MSM, 8 h
  Growth of Bacillus coagulans: 4.81 log10 CFU/mL
[2]; 0.125% MSM, 16 h
  Growth of Bacillus coagulans: 6.95 log10 CFU/mL
[2]; 0.125% MSM, 24 h
  Growth of Bacillus coagulans: 9.87 log10 CFU/mL
[2]; 0.125% MSM, 32 h
  Growth of Bacillus coagulans: 11.06 log10 CFU/mL
[2]; 0.125% MSM, 40 h
  Growth of Bacillus coagulans: 11.72 log10 CFU/mL
[2]; 0.125% MSM, 48 h
  Growth of Bacillus coagulans: 11.56 log10 CFU/mL
[2]; 0.125% MSM, 56 h
  Growth of Bacillus coagulans: 9.60 log10 CFU/mL
[2]; 0.125% MSM, 64 h
  Growth of Bacillus coagulans: 12.13 log10 CFU/mL
[2]; 0.125% MSM, 72 h
  Growth of Bacillus coagulans: 10.14 log10 CFU/mL
[2]; 0.2% MSM, 0 h
  Growth of Bacillus coagulans: 1.67 log10 CFU/mL
[2]; 0.2% MSM, 8 h
  Growth of Bacillus coagulans: 4.94 log10 CFU/mL
[2]; 0.2% MSM, 16 h
  Growth of Bacillus coagulans: 7.19 log10 CFU/mL
[2]; 0.2% MSM, 24 h
  Growth of Bacillus coagulans: 10.34 log10 CFU/mL
[2]; 0.2% MSM, 32 h
  Growth of Bacillus coagulans: 11.25 log10 CFU/mL
[2]; 0.2% MSM, 40 h
  Growth of Bacillus coagulans: 11.34 log10 CFU/mL
[2]; 0.2% MSM, 48 h
  Growth of Bacillus coagulans: 9.94 log10 CFU/mL
[2]; 0.2% MSM, 56 h
  Growth of Bacillus coagulans: 11.45 log10 CFU/mL
[2]; 0.2% MSM, 64 h
  Growth of Bacillus coagulans: 11.37 log10 CFU/mL
[2]; 0.2% MSM, 72 h
  Growth of Bacillus coagulans: 10.94 log10 CFU/mL
[2]; 0.50% MSM, 0 h
  Growth of Bacillus coagulans: 1.48 log10 CFU/mL
[2]; 0.50% MSM, 8 h
  Growth of Bacillus coagulans: 4.42 log10 CFU/mL
[2]; 0.50% MSM, 16 h
  Growth of Bacillus coagulans: 6.94 log10 CFU/mL
[2]; 0.50% MSM, 24 h
  Growth of Bacillus coagulans: 10.29 log10 CFU/mL
[2]; 0.50% MSM, 32 h
  Growth of Bacillus coagulans: 11.05 log10 CFU/mL
[2]; 0.50% MSM, 40 h
  Growth of Bacillus coagulans: 10.25 log10 CFU/mL
[2]; 0.50% MSM, 48 h
  Growth of Bacillus coagulans: 10.40 log10 CFU/mL
[2]; 0.50% MSM, 56 h
  Growth of Bacillus coagulans: 10.76 log10 CFU/mL
[2]; 0.50% MSM, 64 h
  Growth of Bacillus coagulans: 10.45 log10 CFU/mL
[2]; 0.50% MSM, 72 h
  Growth of Bacillus coagulans: 10.86 log10 CFU/mL
[2]; 1% MSM, 0 h
  Growth of Bacillus coagulans: 1.30 log10 CFU/mL
[2]; 1% MSM, 8 h
  Growth of Bacillus coagulans: 4.98 log10 CFU/mL
[2]; 1% MSM, 16 h
  Growth of Bacillus coagulans: 7.29 log10 CFU/mL
[2]; 1% MSM, 24 h
  Growth of Bacillus coagulans: 10.30 log10 CFU/mL
[2]; 1% MSM, 32 h
  Growth of Bacillus coagulans: 11.42 log10 CFU/mL
[2]; 1% MSM, 40 h
  Growth of Bacillus coagulans: 11.02 log10 CFU/mL
[2]; 1% MSM, 48 h
  Growth of Bacillus coagulans: 10.38 log10 CFU/mL
[2]; 1% MSM, 56 h
  Growth of Bacillus coagulans: 10.86 log10 CFU/mL
[2]; 1% MSM, 64 h
  Growth of Bacillus coagulans: 10.40 log10 CFU/mL
[2]; 1% MSM, 72 h
  Growth of Bacillus coagulans: 10.70 log10 CFU/mL
[2]; 5% MSM, 0 h
  Growth of Bacillus coagulans: 1.56 log10 CFU/mL
[2]; 5% MSM, 8 h
  Growth of Bacillus coagulans: 4.61 log10 CFU/mL
[2]; 5% MSM, 16 h
  Growth of Bacillus coagulans: 7.56 log10 CFU/mL
[2]; 5% MSM, 24 h
  Growth of Bacillus coagulans: 10.48 log10 CFU/mL
[2]; 5% MSM, 32 h
  Growth of Bacillus coagulans: 11.55 log10 CFU/mL
[2]; 5% MSM, 40 h
  Growth of Bacillus coagulans: 10.85 log10 CFU/mL
[2]; 5% MSM, 48 h
  Growth of Bacillus coagulans: 10.22 log10 CFU/mL
[2]; 5% MSM, 56 h
  Growth of Bacillus coagulans: 11.1 log10 CFU/mL
[2]; 5% MSM, 64 h
  Growth of Bacillus coagulans: 10.75 log10 CFU/mL
[2]; 5% MSM, 72 h
  Growth of Bacillus coagulans: 11.81 log10 CFU/mL
[2]; […] MSM, 0 h
  Growth of Bacillus coagulans: 1.43 log10 CFU/mL
[2]; […] MSM, 8 h
  Growth of Bacillus coagulans: 5.13 log10 CFU/mL
[2]; […] MSM, 16 h
  Growth of Bacillus coagulans: 7.05 log10 CFU/mL
[2]; […] MSM, 24 h
  Growth of Bacillus coagulans: 10.22 log10 CFU/mL
[2]; […] MSM, 32 h
  Growth of Bacillus coagulans: 11.70 log10 CFU/mL
[2]; […] MSM, 40 h
  Growth of Bacillus coagulans: 10.55 log10 CFU/mL
[2]; […] MSM, 48 h
  Growth of Bacillus coagulans: 10.88 log10 CFU/mL
[2]; […] MSM, 56 h
  Growth of Bacillus coagulans: 10.86 log10 CFU/mL
